How the values were obtained:
Type in all cases: cell-based, mouse
[1] = system: CD36; assay: Expression of genes controlled by Nrf2 in RAW264.7: CD36; details: RAW264.7, 25 μM, 20 hours
Procedure: (§1) A mouse macrophage cell line RAW264.7 was seeded on a φ60 mm dish (9×10^5 cells), 2 ml of a D-MEM medium (Invitrogen) supplemented with 10% fetal bovine serum (HyClone) and penicillin-streptomycin (100 units/ml and 100 μg/ml, respectively; Sigma) was added, and the dish was incubated at 37° C. in an atmosphere of 5% CO2 for 2 days. The medium was replaced with a fresh medium containing individual samples and incubation was continued for another 20 hours. Then, the total RNA was prepared using TRIzol (Invitrogen) and purified using a RNeasy Mini kit (Qiagen) and an RNase-free DNase set (Qiagen). Further, cDNA was synthesized from 5 μg of the purified total RNA using a Thermo Script RT-PCR system (Invitrogen), and the amount of mRNA expression of various genes was determined using a FastStart DNA Master SYBR Green I kit (Roche) and a Light Cycler (Roche).
(§2) The amount of expression of the various genes was corrected by the amount of expression of the housekeeping gene PO and calculated as a relative expression level (n=2, mean±standard deviation). […]

[2] = system: TNF-α; assay: Suppression of TNF-α production by macrophages (TPA and IFN-γ); details: RAW264.7, TPA 400 nM and IFN-γ 10 units/ml, 5, 10, 20, and 40 μM, 24 hours
Procedure: A mouse macrophage cell line RAW264.7 (4×10^4 cells/well) was seeded on a 96-well plate, […] of a D-MEM medium (Invitrogen) containing each sample, 10% fetal bovine serum (HyClone), and penicillin-streptomycin (100 units/ml and 100 μg/ml, respectively; Sigma) was added, and the plate was incubated at 37° C. in an atmosphere of 5% CO2 for 4 hours. Then 150 μl of a medium containing TPA (phorbol 12-tetradecanoate 13-acetate, Sigma), mouse IFN-γ (interferon-γ, eBioscience), and each sample was added and incubation was carried out for 24 hours. TPA and IFN-γ were added at a final concentration of 400 nM and 10 units/ml, respectively. As samples, isomerized hop extract was added at a concentration of 5, 10, 20, and 30 μ/ml and isohumulone (IH(F)) and isohumulone (IcH(G)) were added individually at a concentration of 5, 10, 20, and 40 μM.
After completing incubation, the amount of TNF-α in the culture fluid was measured using a mouse TNF-α ELISA kit(eBioscience). The amount of TNF-α was expressed as a relative value by setting the value for the control as 100% (n=3, mean±standard variation). As a positive control, 15dPGJ2 (Cayman Chemical) was used.

[3] = system: glucose-6-phosphate dehydrogenase, X-linked (G6PDX); assay: Expression of genes controlled by Nrf2 in RAW264.7: G6PDX; details: RAW264.7, 25 μM, 20 hours
Procedure: as §1, §2

CC(C)=CCC(=O)C1(O)C(O)=C(C(=O)CC(C)C)C(=O)C1CC=C(C)C (stereo not drawn) [IH (F), isohumulone]
expression of CD36 [1]: augmented the expression
TNF-α production [2]: concentration-dependently suppressed
expression of G6PDX [3]: augmented the expression
